ChEMBL document CHEMBL1201862, “PubChem BioAssay data set” (2004)
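Growth conditions: 96-well plates. Treatment: test compound, 48 hours, 5 concentrations. Analysis: linear interpolation between bracketing concentrations; unreached endpoints set to highest concentration. GI50: concentration for 50% inhibition of growth.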 The source made the active and inactive calls. Cut-off read from the data, not from the text of the source: active = GI50 up to about 1.1 µM and inactive = higher.

How the values were obtained:
Assay in all cases: NCI-60 cell line screen, 48 h
786-0 = tested on: 786-0
ACHN = tested on: ACHN
BT-549 = tested on: BT-549
KM12 = tested on: KM12
LOX IMVI = tested on: LOX IMVI
M14 = tested on: M14
MCF7 = tested on: MCF7
OVCAR-4 = tested on: OVCAR-4
OVCAR-8 = tested on: OVCAR-8
PC-3 = tested on: PC-3
SF-268 = tested on: SF-268
SK-MEL-28 = tested on: SK-MEL-28
SK-OV-3 = tested on: SK-OV-3
SN12C = tested on: SN12C
SW-620 = tested on: SW-620
UACC-257 = tested on: UACC-257
CCRF-CEM = tested on: CCRF-CEM
DU-145 = tested on: DU-145

Measured: GI50

CCN(CC)c1nc(N(C)C)c2ccc(OC)cc2n1
inactive: 786-0 17.5 µM | ACHN 12.5 µM | BT-549 22.8 µM | KM12 14.7 µM | LOX IMVI 17.1 µM | M14 8.75 µM | MCF7 10.9 µM | OVCAR-4 25.8 µM | OVCAR-8 15.2 µM | PC-3 17.3 µM | SF-268 32.3 µM | SK-MEL-28 12.5 µM | SK-OV-3 13.7 µM | SN12C 15 µM | SW-620 7.08 µM | UACC-257 11.5 µM

Oc1c(Cl)c(Cl)c(O)c2c1CCCC2
inactive: 786-0 1.93 µM | ACHN 1.75 µM | BT-549 14.8 µM | CCRF-CEM 2.08 µM | KM12 12.4 µM | LOX IMVI 3.48 µM | M14 15.5 µM | MCF7 2.13 µM | OVCAR-8 18.7 µM | PC-3 17.7 µM | SF-268 11.6 µM | SK-MEL-28 13.6 µM | SK-OV-3 14.2 µM | SN12C 14.7 µM | SW-620 1.99 µM | UACC-257 16.8 µM

C=CCC1(O)CC(n2cc(C)c(=O)[nH]c2=O)OC1CO[Si](C)(C)C(C)(C)C (centres undefined)
inactive: 786-0 44.1 µM | ACHN 45.6 µM | BT-549 46.3 µM | CCRF-CEM 43.8 µM | DU-145 45.8 µM | KM12 45.3 µM | LOX IMVI 31.2 µM | M14 46.7 µM | MCF7 47.8 µM | OVCAR-4 47 µM | OVCAR-8 42.9 µM | PC-3 36.5 µM | SK-MEL-28 68.9 µM | SN12C 31.6 µM | SW-620 73.1 µM | UACC-257 52.4 µM

c1ccc2c(c1)SCCC2NC1=NCCO1 (centres undefined)
inactive: 786-0 > 100 µM | ACHN > 100 µM | CCRF-CEM > 100 µM | DU-145 > 100 µM | KM12 > 100 µM | LOX IMVI > 100 µM | M14 > 100 µM | MCF7 > 100 µM | OVCAR-4 > 100 µM | OVCAR-8 > 100 µM | PC-3 > 100 µM | SF-268 > 100 µM | SK-MEL-28 > 100 µM | SK-OV-3 > 100 µM | SN12C > 100 µM | SW-620 > 100 µM
